For this experiment, the target named is GRP78 (78 kDa glucose-regulated protein) (Homo sapiens, UniProt P11021, K326A). Description: microscale thermophoresis. Type of experiment: binding. A general note: MST reads how a fluorescent partner responds to local heating, with and without ligand.

In general, Kd refers to the equilibrium constant for the complex coming apart. Read a low Kd as tighter binding.

Sequence of GRP78 (78 kDa glucose-regulated protein) (P11021 19-654 K326A): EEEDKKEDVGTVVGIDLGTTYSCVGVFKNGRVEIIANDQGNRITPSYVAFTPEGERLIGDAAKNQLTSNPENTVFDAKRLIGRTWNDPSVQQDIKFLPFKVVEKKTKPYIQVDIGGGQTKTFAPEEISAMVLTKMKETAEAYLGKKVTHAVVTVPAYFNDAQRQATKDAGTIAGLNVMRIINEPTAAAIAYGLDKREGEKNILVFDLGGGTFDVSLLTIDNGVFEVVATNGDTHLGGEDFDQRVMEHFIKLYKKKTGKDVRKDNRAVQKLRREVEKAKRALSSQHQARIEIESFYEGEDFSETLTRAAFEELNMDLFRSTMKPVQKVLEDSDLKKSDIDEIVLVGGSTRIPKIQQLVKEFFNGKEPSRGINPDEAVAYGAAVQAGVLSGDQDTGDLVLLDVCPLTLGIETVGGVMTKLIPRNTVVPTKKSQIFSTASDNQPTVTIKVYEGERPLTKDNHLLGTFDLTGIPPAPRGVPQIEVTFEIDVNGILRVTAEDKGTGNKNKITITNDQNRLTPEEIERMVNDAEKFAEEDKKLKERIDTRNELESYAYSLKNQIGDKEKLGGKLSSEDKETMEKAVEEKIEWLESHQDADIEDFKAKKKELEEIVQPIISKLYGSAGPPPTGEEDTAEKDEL

Compound `CC(=O)OC(C)(C)/C=C/C(=O)[C@](C)(O)[C@H]1[C@H](O)C[C@@]2(C)[C@@H]3CC=C4[C@@H](C[C@H](O)C(=O)C4(C)C)[C@]3(C)C(=O)C[C@]12C` [CuB, cucurbitacin B] displayed a dissociation constant (Kd) of 25.4 µM.

For the origin of these results see article PMC9532536 (Acta Pharmaceutica Sinica. B, 2022).
